Test results as given in ChEMBL document CHEMBL1201862, “PubChem BioAssay data set” (2004).
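Each compound was tested at five concentrations against cells in 96-well plates for 48 hours. GI50 = concentration required for 50% inhibition of growth.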 Activity calls are given as the source filed them. Rule as the data show it: active = GI50 up to about 1.1 µM and inactive = higher.

Key:
Experiment in all cases: growth of human tumour cells (NCI), 48 h
IGROV-1 = tested on: IGROV-1
A549 = tested on: A549
EKVX = tested on: EKVX
Hs-578T = tested on: Hs-578T
RPMI-8226 = tested on: RPMI-8226
OVCAR-3 = tested on: OVCAR-3
HCT-15 = tested on: HCT-15
OVCAR-4 = tested on: OVCAR-4
SK-MEL-28 = tested on: SK-MEL-28
MDA-N = tested on: MDA-N
NCI-H522 = tested on: NCI-H522
HL-60 = tested on: HL-60
U-251 = tested on: U-251
HCC 2998 = tested on: HCC 2998
ACHN = tested on: ACHN
SK-MEL-2 = tested on: SK-MEL-2
COLO 205 = tested on: COLO 205
SK-MEL-5 = tested on: SK-MEL-5
SF-295 = tested on: SF-295

| Compound | GI50 (IGROV-1) | GI50 (A549) | GI50 (EKVX) | GI50 (Hs-578T) | GI50 (RPMI-8226) | GI50 (OVCAR-3) | GI50 (HCT-15) | GI50 (OVCAR-4) | GI50 (SK-MEL-28) | GI50 (MDA-N) | GI50 (NCI-H522) | GI50 (HL-60) | GI50 (U-251) | GI50 (HCC 2998) | GI50 (ACHN) | GI50 (SK-MEL-2) | GI50 (COLO 205) | GI50 (SK-MEL-5) | GI50 (SF-295) |
| --- | --- | --- | --- | --- | --- | --- | --- | --- | --- | --- | --- | --- | --- | --- | --- | --- | --- | --- | --- |
| Cc1cnc2[nH]c(-c3cccc(F)c3)cc(=O)c2c1 | 0.161 µM (active) | 0.0515 µM (active) | 0.2 µM (active) | 0.0121 µM (active) | 0.0402 µM (active) | 0.0139 µM (active) | 0.0267 µM | 1.31 µM (inactive) | 0.0352 µM (active) | 0.0112 µM (active) | 0.0255 µM (active) | 0.0186 µM (active) | 0.0405 µM (active) | 0.111 µM (active) | 0.0664 µM (active) | 0.0802 µM (active) | 0.0214 µM (active) | 0.0329 µM (active) | 0.0322 µM (active) |
| O=C1/C(=C/c2ccc(O)cc2)CCc2ccccc21 | 26.9 µM (inactive) | 23.6 µM (inactive) | 23 µM (inactive) | 23 µM (inactive) | 6.5 µM (inactive) | 23.3 µM (inactive) | 18.8 µM | 18.5 µM (inactive) | 19.2 µM (inactive) | 22.1 µM (inactive) | 3.05 µM (inactive) | 6.14 µM (inactive) | 27.6 µM (inactive) | 22 µM (inactive) | 21.1 µM (inactive) | 16 µM (inactive) | 22 µM (inactive) | 16.9 µM (inactive) | 28 µM (inactive) |
| CC(C)(C)OC(=O)C1=C(N)N(Cc2ccccc2)C2(C)C=CC(=O)C=C12 (stereo not given) | 5.31 µM (inactive) | 12.4 µM (inactive) | 5.73 µM (inactive) | 14.5 µM (inactive) | 2.6 µM (inactive) | 3.1 µM (inactive) | 3.21 µM | 3.36 µM (inactive) | 7.41 µM (inactive) | 4.79 µM (inactive) | 1.67 µM (inactive) | 1.88 µM (inactive) | 8.73 µM (inactive) | 14.2 µM (inactive) | 2.47 µM (inactive) | 11.7 µM (inactive) | 2.3 µM (inactive) | 4.31 µM (inactive) | 14.9 µM (inactive) |
| O=C(Nc1cccc(C(F)(F)F)c1)c1cc(Br)cc(Br)c1O [FLUOROSALAN] | 4.28 µM (inactive) | 2.83 µM (inactive) | 2.19 µM (inactive) | 3.4 µM (inactive) | 2.08 µM (inactive) | 2.24 µM (inactive) | 4.5 µM | 3.68 µM (inactive) | 3.38 µM (inactive) | 3.69 µM (inactive) | 3 µM (inactive) | 2.34 µM (inactive) | 3.79 µM (inactive) | 3.03 µM (inactive) | 3.06 µM (inactive) | 2.32 µM (inactive) | 3.18 µM (inactive) | 1.65 µM (inactive) | 2.62 µM (inactive) |
| CCOC(=O)C1(C#N)C(=O)c2cc[n+](CC[n+]3ccc4c(c3)C(=O)C(C#N)(C(=O)OCC)C4=O)cc2C1=O (stereo not given) | > 100 µM (inactive) | > 100 µM (inactive) | > 100 µM (inactive) | > 100 µM (inactive) | > 100 µM (inactive) | 25.4 µM (inactive) | > 100 µM | > 100 µM (inactive) | > 100 µM (inactive) | 64.1 µM (inactive) | > 100 µM (inactive) | 83.4 µM (inactive) | > 100 µM (inactive) | > 100 µM (inactive) | > 100 µM (inactive) | 36.1 µM (inactive) | > 10 µM (inactive) | 18.4 µM (inactive) | > 100 µM (inactive) |
| CC(C)(CO)CNc1cc(Cl)nc(N)n1 | > 100 µM (inactive) | > 100 µM (inactive) | > 100 µM (inactive) | > 100 µM (inactive) | > 100 µM (inactive) | > 100 µM (inactive) | > 100 µM | > 100 µM (inactive) | > 100 µM (inactive) | > 100 µM (inactive) | > 100 µM (inactive) | > 100 µM (inactive) | > 100 µM (inactive) | > 100 µM (inactive) | > 100 µM (inactive) | > 100 µM (inactive) | > 100 µM (inactive) | > 100 µM (inactive) | > 100 µM (inactive) |
| CN(O)C(=O)CCC(NC(=O)CCC(N)C(=O)O)C(=O)NCC(=O)O (stereo not given) | > 100 µM (inactive) | > 100 µM (inactive) | > 100 µM (inactive) | > 100 µM (inactive) | > 100 µM (inactive) | > 100 µM (inactive) | > 100 µM | > 100 µM (inactive) | > 100 µM (inactive) | > 100 µM (inactive) | > 100 µM (inactive) | > 100 µM (inactive) | > 100 µM (inactive) | > 100 µM (inactive) | > 100 µM (inactive) | > 100 µM (inactive) | > 100 µM (inactive) | > 100 µM (inactive) | > 100 µM (inactive) |
| CCOc1c(OC)cc(-c2nc3n(n2)C(=O)C(CC)S3)cc1OC (stereo not given) | > 10 µM (inactive) | > 10 µM (inactive) | > 10 µM (inactive) | > 10 µM (inactive) | > 10 µM (inactive) | > 10 µM (inactive) | > 10 µM | > 10 µM (inactive) | > 10 µM (inactive) | > 10 µM (inactive) | > 10 µM (inactive) | > 10 µM (inactive) | > 10 µM (inactive) | > 10 µM (inactive) | > 10 µM (inactive) | > 10 µM (inactive) | > 10 µM (inactive) | > 10 µM (inactive) | > 10 µM (inactive) |
| COc1ccc(C(=O)/C=C/c2ccc(O)c(O)c2)c(OC)c1 | 0.887 µM (active) | 14 µM (inactive) | 11.8 µM (inactive) | 2.19 µM (inactive) | 0.7 µM (active) | 0.242 µM (active) | 0.292 µM | 12.4 µM (inactive) | 7.6 µM (inactive) | 0.454 µM (active) | 0.245 µM (active) | 0.377 µM (active) | 1.7 µM (inactive) | 1.21 µM (inactive) | 10.9 µM (inactive) | 2.77 µM (inactive) | 15.1 µM (inactive) | 1.85 µM (inactive) | 3.66 µM (inactive) |
| CC(C)(C)NC(=O)/C(=C\Sc1ccccc1)c1ccccc1 | > 100 µM (inactive) | > 100 µM (inactive) | > 74.6 µM (inactive) | 72.1 µM (inactive) | 19.6 µM (inactive) | > 100 µM (inactive) | > 48.5 µM | > 68.4 µM (inactive) | > 100 µM (inactive) | 71.1 µM (inactive) | 6.15 µM (inactive) | > 100 µM (inactive) | > 100 µM (inactive) | > 100 µM (inactive) | > 100 µM (inactive) | > 100 µM (inactive) | > 71 µM (inactive) | 52.5 µM (inactive) | > 100 µM (inactive) |
| CCc1nc(N)nc(N)c1-c1ccc(NCCc2ccccc2)c([N+](=O)[O-])c1 | 0.394 µM (active) | 0.0861 µM (active) | 3.34 µM (inactive) | 9.66 µM (inactive) | 1.11 µM (active) | 1.44 µM (inactive) | 0.108 µM | 3.24 µM (inactive) | 2.74 µM (inactive) | 0.195 µM (active) | 0.56 µM (active) | 0.186 µM (active) | 0.364 µM (active) | 0.745 µM (active) | 0.353 µM (active) | 8.71 µM (inactive) | 1.11 µM (active) | 0.486 µM (active) | 0.317 µM (active) |
| CCOC(=O)C(NC(=O)CC)(N1CCN(c2cc3c(cc2F)c(=O)c(C(=O)O)cn3C2CC2)CC1)C(F)(F)F (stereo not given) | > 100 µM (inactive) | > 100 µM (inactive) | > 100 µM (inactive) | > 100 µM (inactive) | > 100 µM (inactive) | > 100 µM (inactive) | > 100 µM | > 100 µM (inactive) | > 100 µM (inactive) | > 100 µM (inactive) | > 100 µM (inactive) | > 100 µM (inactive) | 92.9 µM (inactive) | > 100 µM (inactive) | > 100 µM (inactive) | > 100 µM (inactive) | > 100 µM (inactive) | > 100 µM (inactive) | > 100 µM (inactive) |
| CC1CC[C@@]2(OC1)OC1C[C@H]3[C@@H]4CC[C@H]5CC(OC6OC(CO)C(O)C(OC7OC(CO)C(OC8OC(CO)C(O)C(OC9OC(CO)C(O)C(O)C9O)C8OC8OC(CO)C(O)C(O)C8O)C(O)C7O)C6O)[C@H](O)CC5(C)[C@H]4CCC3(C)C1[C@@H]2C (stereo not given in full) | 1.44 µM (inactive) | 9.4 µM (inactive) | 4.15 µM (inactive) | 1.84 µM (inactive) | 2.55 µM (inactive) | 0.9 µM (active) | 9.48 µM | 2.4 µM (inactive) | 7.45 µM (inactive) | 6.59 µM (inactive) | 1.66 µM (inactive) | 2.57 µM (inactive) | 2.7 µM (inactive) | 1.43 µM (inactive) | 1.9 µM (inactive) | 3.27 µM (inactive) | 1.95 µM (inactive) | 6.95 µM (inactive) | 2.99 µM (inactive) |
| CCOC(=O)COc1ccc2c(C)cc(=O)oc2c1 | > 100 µM (inactive) | > 100 µM (inactive) | > 100 µM (inactive) | > 100 µM (inactive) | > 100 µM (inactive) | > 100 µM (inactive) | > 100 µM | > 100 µM (inactive) | > 100 µM (inactive) | > 100 µM (inactive) | > 100 µM (inactive) | > 100 µM (inactive) | > 100 µM (inactive) | 34.4 µM (inactive) | > 100 µM (inactive) | > 100 µM (inactive) | > 100 µM (inactive) | > 100 µM (inactive) | > 100 µM (inactive) |
| Clc1nc2c(C#Cc3ccccc3)ncnc2n1C1CCCCO1 (stereo not given) | 13.5 µM (inactive) | 16.5 µM (inactive) | 2.55 µM (inactive) | 24.7 µM (inactive) | 4.12 µM (inactive) | 14.8 µM (inactive) | 12.2 µM | 9.51 µM (inactive) | 26.5 µM (inactive) | 8.47 µM (inactive) | 7.94 µM (inactive) | 11.7 µM (inactive) | 12.6 µM (inactive) | 14.7 µM (inactive) | 16.1 µM (inactive) | 12.9 µM (inactive) | 15.4 µM (inactive) | 11.6 µM (inactive) | 22.6 µM (inactive) |
